Data on 12 compounds can be found in ChEMBL document CHEMBL3098059, “Identification by in silico and in vitro screenings of small organic molecules acting as reversible inhibitors of kallikreins” (Eur J Med Chem, 2013).

Calls of active or inactive are those of the source. The calls are words filed in the database; no cut-off is given here.

For data set [1], the target named is T1, Kallikrein-7 (Homo sapiens, UniProt P49862). In words: Reversible inhibition of human kallikrein7 using Suc-Leu-Leu-Val-Tyr-AMC as substrate after 15 to 60 mins by fluorescence assay.
Target sequence in this assay (P49862 30-253 limits assumed): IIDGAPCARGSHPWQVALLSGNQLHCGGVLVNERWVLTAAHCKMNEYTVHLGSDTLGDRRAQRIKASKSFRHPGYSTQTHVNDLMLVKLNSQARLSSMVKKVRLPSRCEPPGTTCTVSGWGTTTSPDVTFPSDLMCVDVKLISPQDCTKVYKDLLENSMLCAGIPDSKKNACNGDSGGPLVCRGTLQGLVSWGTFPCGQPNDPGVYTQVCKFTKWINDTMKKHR
The target of data set [2] is Kallikrein-5 (Homo sapiens) (UniProt Q9Y337). In words: Reversible inhibition of human kallikrein5 using Boc-Val-Pro-Arg-AMC as substrate after 15 to 60 mins by fluorescence assay.
Data set [3] deals with T2, Kallikrein-14 (Homo sapiens) (UniProt Q9P0G3).
T2 sequence (whole entry): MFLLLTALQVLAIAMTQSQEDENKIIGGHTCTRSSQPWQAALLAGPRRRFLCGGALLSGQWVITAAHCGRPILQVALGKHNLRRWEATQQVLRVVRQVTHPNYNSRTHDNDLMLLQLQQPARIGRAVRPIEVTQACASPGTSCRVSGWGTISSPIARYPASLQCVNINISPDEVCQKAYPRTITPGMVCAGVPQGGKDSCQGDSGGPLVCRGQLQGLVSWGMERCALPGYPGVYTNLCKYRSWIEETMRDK
The data set is described as follows: Reversible inhibition of human kallikrein14 using Boc-Val-Pro-Arg-AMC as substrate after 15 to 60 mins by fluorescence assay.

The target of data set [4] is T2, Kallikrein-14 (Homo sapiens). In words: Inhibition of human kallikrein14 using Boc-Val-Pro-Arg-AMC as substrate at 50 uM after 15 mins by fluorescence assay.
The target in data set [5] is T3, Suppressor of tumorigenicity 14 protein (Homo sapiens) (UniProt Q9Y5Y6).
T3 sequence (whole entry): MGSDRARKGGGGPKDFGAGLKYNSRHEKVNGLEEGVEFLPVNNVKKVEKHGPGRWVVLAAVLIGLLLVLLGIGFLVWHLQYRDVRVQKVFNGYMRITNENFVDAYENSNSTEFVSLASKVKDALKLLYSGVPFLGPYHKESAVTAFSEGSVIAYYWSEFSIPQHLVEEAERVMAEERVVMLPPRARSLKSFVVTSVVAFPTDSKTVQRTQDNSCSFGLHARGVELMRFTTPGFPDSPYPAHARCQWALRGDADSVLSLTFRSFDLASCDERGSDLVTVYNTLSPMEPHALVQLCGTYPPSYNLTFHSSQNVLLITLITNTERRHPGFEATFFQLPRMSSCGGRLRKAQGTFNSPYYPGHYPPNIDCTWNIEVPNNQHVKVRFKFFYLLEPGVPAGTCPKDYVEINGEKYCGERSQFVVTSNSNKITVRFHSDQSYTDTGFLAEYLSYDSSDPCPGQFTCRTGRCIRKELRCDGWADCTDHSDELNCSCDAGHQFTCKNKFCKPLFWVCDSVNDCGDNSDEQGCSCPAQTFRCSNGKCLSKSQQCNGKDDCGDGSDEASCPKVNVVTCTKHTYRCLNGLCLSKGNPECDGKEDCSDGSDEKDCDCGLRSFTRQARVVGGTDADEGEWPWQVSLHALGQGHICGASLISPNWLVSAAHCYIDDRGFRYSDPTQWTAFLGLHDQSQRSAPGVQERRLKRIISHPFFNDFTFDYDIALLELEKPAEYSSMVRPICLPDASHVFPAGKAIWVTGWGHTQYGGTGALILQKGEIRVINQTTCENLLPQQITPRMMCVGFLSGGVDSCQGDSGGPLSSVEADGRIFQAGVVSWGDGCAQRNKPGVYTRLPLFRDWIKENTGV
The data set is described as follows: Inhibition of matriptase (unknown origin) using Boc-Gln-Ala-Arg-AMC as substrate at 50 uM after 15 mins by fluorescence assay.

Data set [6] concerns the target Kallikrein-5 (Homo sapiens) (UniProt Q9Y337). In words: Inhibition of human kallikrein5 using Boc-Val-Pro-Arg-AMC as substrate at 50 uM after 15 mins by fluorescence assay.
Data set [7] deals with T3, Suppressor of tumorigenicity 14 protein (Homo sapiens). The data set is described as follows: Reversible inhibition of matriptase (unknown origin) using Boc-Gln-Ala-Arg-AMC as substrate after 15 to 60 mins by fluorescence assay.
In data set [8] the target is T1, Kallikrein-7. In words: Inhibition of human kallikrein7 using Suc-Leu-Leu-Val-Tyr-AMC as substrate at 50 uM after 15 mins by fluorescence assay.
Target sequence in this assay (P49862 30-253 limits assumed): as the sequence (P49862 30-253 limits assumed) above
For data set [9], the target named is T4, Suppressor of tumorigenicity 14 protein (Homo sapiens, UniProt Q9Y5Y6).
T4 sequence (Q9Y5Y6 whole entry): T3 sequence (whole entry)
The data set is described as follows: Inhibition of matriptase (unknown origin) using Boc-Gln-Ala-Arg-AMC as substrate after 15 mins by fluorescence assay.

In the next data set the target is T5, Kallikrein-14 (Homo sapiens, UniProt Q9P0G3).
T5 sequence (Q9P0G3 whole entry): T2 sequence (whole entry)
The data set is described as follows: Inhibition of human kallikrein14 using Boc-Val-Pro-Arg-AMC as substrate after 15 mins by fluorescence assay.

Data set [10] can be described thus: Cytotoxicity against human keratinocytes assessed as cell viability at 10 uM after 24 to 48 hrs by neutral red assay. It is filed as cell-based, Keratinocyte. The note with it: for Activity: keratinocyte, 10 µM.
In data set [11] the target is T1, Kallikrein-7. In words: Mixed-type inhibition of human kallikrein7 using Suc-Leu-Leu-Val-Tyr-AMC as substrate assessed as enzyme-substrate-inhibitor complex after 15 to 60 mins by Lineweaver-Burk/Eadie-Hofstee plot analysis.
Target sequence in this assay (P49862 whole entry): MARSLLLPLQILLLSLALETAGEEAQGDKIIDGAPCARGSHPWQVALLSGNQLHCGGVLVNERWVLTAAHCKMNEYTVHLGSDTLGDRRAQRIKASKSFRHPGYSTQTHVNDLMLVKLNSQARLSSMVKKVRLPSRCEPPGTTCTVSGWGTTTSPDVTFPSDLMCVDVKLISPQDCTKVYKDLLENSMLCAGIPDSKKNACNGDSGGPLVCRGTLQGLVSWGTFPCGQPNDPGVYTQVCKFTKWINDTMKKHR
For data set [12], the target named is T1, Kallikrein-7. In words: Inhibition of human kallikrein7 using Suc-Leu-Leu-Val-Tyr-AMC as substrate after 15 mins by fluorescence assay.
Target sequence in this assay (P49862 whole entry): as above
In data set [13] the target is T1, Kallikrein-7. In words: Mixed-type inhibition of human kallikrein7 using Suc-Leu-Leu-Val-Tyr-AMC as substrate assessed as enzyme-inhibitor complex after 15 to 60 mins by Lineweaver-Burk/Eadie-Hofstee plot analysis.
Target sequence in this assay (P49862 whole entry): as above
Data set [14] concerns the target T6, Kallikrein-5 (Homo sapiens, UniProt Q9Y337).
T6 sequence (Q9Y337 whole entry): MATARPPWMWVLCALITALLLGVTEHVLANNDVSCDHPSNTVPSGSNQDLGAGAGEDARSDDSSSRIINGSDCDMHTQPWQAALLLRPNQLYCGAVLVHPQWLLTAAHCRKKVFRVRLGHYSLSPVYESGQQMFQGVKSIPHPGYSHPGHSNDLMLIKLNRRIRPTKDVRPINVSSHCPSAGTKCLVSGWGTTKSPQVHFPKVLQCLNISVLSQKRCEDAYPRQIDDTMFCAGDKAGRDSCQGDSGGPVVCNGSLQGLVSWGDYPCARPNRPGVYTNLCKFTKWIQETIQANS
In words: Competitive inhibition of human kallikrein5 using Boc-Val-Pro-Arg-AMC as substrate after 15 to 60 mins by Lineweaver-Burk/Eadie-Hofstee plot analysis.

A short description of data set [15]: Cytotoxicity against human keratinocytes assessed as cell viability at 1 uM after 24 to 48 hrs by neutral red assay. In kind it is cell-based. The note with it: keratinocyte.
The target of data set [16] is T1, Kallikrein-7. In words: Ratio of Ki for mixed-type inhibition of human kallikrein7 assessed as enzyme-substrate-inhibitor complex to Ki for mixed-type inhibition of human kallikrein7 assessed as enzyme-inhibitor complex.
Target sequence in this assay (P49862 30-253 limits assumed): as the sequence (P49862 30-253 limits assumed) above
The target of data set [17] is T6, Kallikrein-5. The data set is described as follows: Inhibition of human kallikrein5 using Boc-Val-Pro-Arg-AMC as substrate after 15 mins by fluorescence assay.

What is called inhibition is the share of the control response that was lost under treatment. For `CCOc1cccc(NC(=O)/C(C#N)=C\c2ccc(O)c(OC)c2)c1`, the inhibition result (at Kallikrein-7 [1]; in data set [2]; in data set [3]; in [7]) was “Active” in each case. In addition, the inhibition (in data set [4]; in [5]; in data set [6]; against Kallikrein-7 [8]) was less than 30% each time.
A word on the IC50: it is the midpoint of a concentration-inhibition curve. Low values mean greater potency in that assay, high ones weaker potency in that assay. Take `COc1ccc(/C=C/C(=O)c2ccc(O)cc2)cc1COc1ccc(Cl)cc1`: the inhibition entry (on Kallikrein-7 [1]; in data set [2]; in [3]; in data set [7]) was “Active” throughout. The results for the IC50 (in data set [9]; against Kallikrein-14) were 138 µM and 122 µM, respectively. Also, the viability at 10 µM in data set [10] (keratinocytes, read-out: Activity) turned out to be 30%. The inhibition (in data set [6]; against Kallikrein-7 [8]) was less than 30% throughout.
For the compound `CCOc1cc(/C=C(/C#N)C(=O)Nc2ccc(O)cc2)ccc1OC`, the inhibition result (at Kallikrein-7 [1]; in [2]; in [3]; in data set [7]) was “Active” in each case. The inhibition (in data set [4]; in [5]; in data set [6]; on Kallikrein-7 [8]) was less than 30% in each case.
As usually defined, the Ki is a measure of affinity in units of concentration, obtained from inhibition or displacement. With `COc1ccc(/C=C2/SC(=O)N(CNc3cc(F)ccc3C)C2=O)cc1OC`, the inhibition entry (on Kallikrein-7 [1]; in data set [2]; in data set [3]; in data set [7]) was “Active” in each case. Moreover, the inhibition constant Ki on Kallikrein-7 [11] was determined as 166 µM; at Kallikrein-7 [13], 83 µM; at Kallikrein-5 [14], 95 µM. The concentration for half-maximal inhibition (IC50) on Kallikrein-7 [12] came out at 106 µM; in data set [9] it was 103 µM; at Kallikrein-14, 112 µM; on Kallikrein-5 [17], 117 µM. In addition, the Activity entry in data set [15] and in data set [10] was “Non-toxic” throughout. For the same compound, the Ratio Ki at Kallikrein-7 [16] stood at 2.
For `CCOc1cccc(NC(=O)/C(C#N)=C\c2ccc(O)cc2)c1`, the inhibition result (on Kallikrein-7 [1]; in data set [2]; in [3]; in [7]) was “Active” throughout. For the same compound, the inhibition (in [4]; in data set [5]; in data set [6]; at Kallikrein-7 [8]) was less than 30% in each case.
As to `CCOc1cc(/C=C(/C#N)C(=O)Nc2ccc(O)cc2)ccc1O`, the inhibition entry (on Kallikrein-7 [1]; in data set [2]; in [3]; in data set [7]) was “Active” each time. For the same compound, the Ki on Kallikrein-7 [11] came out at 152 µM; at Kallikrein-7 [13], 75 µM; at Kallikrein-5 [14], 107 µM. In addition, the IC50 against Kallikrein-7 [12] worked out at 94 µM; in data set [9] it was 98 µM; against Kallikrein-14, 101 µM; on Kallikrein-5 [17] it was 117 µM. Also, the Activity entry in data set [15] and in data set [10] was “Non-toxic” in each case. Besides, the Ratio Ki on Kallikrein-7 [16] came to 2.
On to `O=c1c2ccccc2nc(CSc2ccccn2)n1-c1cccc(C(F)(F)F)c1`, for which the inhibition result (on Kallikrein-7 [1]; in [2]; in data set [3]; in data set [7]) was “Active” each time. The inhibition (in data set [4]; in data set [5]; in [6]; against Kallikrein-7 [8]) was less than 30% throughout.
With `COc1cc(/C=C(/C#N)C(=O)Nc2ccc(O)cc2)ccc1O`, the inhibition entry (at Kallikrein-7 [1]; in data set [2]; in [3]; in data set [7]) was “Active” in each case. In addition, the Ki on Kallikrein-7 [11] was 129 µM; at Kallikrein-7 [13], 70 µM; at Kallikrein-5 [14], 112 µM. The IC50 is 107 µM on Kallikrein-7 [12], 111 µM in data set [9], 106 µM against Kallikrein-14 and 131 µM against Kallikrein-5 [17]. Moreover, at Kallikrein-7 [16], the Ratio Ki was found to be 2.
`O=c1c2ccccc2nc(CSc2[nH]cnc3ncnc2-3)n1-c1cccc(C(F)(F)F)c1`: the inhibition result (on Kallikrein-7 [1]; in [2]; in data set [3]; in data set [7]) was “Active” throughout. Moreover, the inhibition (in data set [4]; in [5]; in data set [6]; on Kallikrein-7 [8]) was less than 30% in each case.
`COc1cc(/C=C(/C#N)c2nc3ccccc3[nH]2)ccc1OCc1ccccc1`: the inhibition result (on Kallikrein-7 [1]; in data set [2]; in data set [3]; in data set [7]) was “Active” each time. Besides, the inhibition (in data set [4]; in data set [5]; in data set [6]; against Kallikrein-7 [8]) was less than 30% each time.
As for `CCOc1ccc(/C=C(/C#N)C(=O)Nc2ccc(O)cc2)cc1OC`, the inhibition result (at Kallikrein-7 [1]; in data set [2]; in data set [3]; in [7]) was “Active” throughout. The inhibition (in data set [4]; in [5]; in [6]; against Kallikrein-7 [8]) was less than 30% each time.
As for `COc1ccc(NC(=O)/C(C#N)=C\c2ccc(O)c(OC)c2)cc1`, the inhibition result (on Kallikrein-7 [1]; in data set [2]; in data set [3]; in data set [7]) was “Active” throughout. The inhibitory constant (Ki) at Kallikrein-7 [11] worked out at 164 µM; at Kallikrein-7 [13], 72 µM; on Kallikrein-5 [14] it was 100 µM. Further, the IC50 against Kallikrein-7 [12] was 90 µM; in data set [9], 120 µM; against Kallikrein-14, 99 µM; at Kallikrein-5 [17], 127 µM. Besides, the Ratio Ki at Kallikrein-7 [16] was found to be 2.
